Legend:
Type in all cases: cell-based
p-ERK [1] = assay: Cell p-ERK assay (HTRF, Advance ERK phospho-T202/Y204 kit) in AsPC-1 cells; conditions: ASPC1; AsPC-1, human pancreatic cancer cell strain, KRAS G12D mutation; 3 h compound incubation
Procedure, shortened: (§1)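 AsPC-1 (KRAS G12D) or NCI-H441 (KRAS G12V) cells seeded overnight, then treated 3 h at 37 °C with compound (0.1% DMSO) in RPMI-1640/10% FBS. Lysates assayed for ERK phospho-T202/Y204 by HTRF; inhibition vs DMSO and blank wells, IC50 from four-parameter fit.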

AsPC-1 cells = assay: 3D cell proliferation assay (CellTiter Glo-3D) in AsPC-1 cells; conditions: ASPC1, 120 h; AsPC-1, human pancreatic cancer cell strain, KRAS G12D mutation; 3D culture, 2% FBS, 5 days; read-out: AsPC-1 AP IC50
Source text: MIA PaCa-2 cells were purchased from ATCC, Cat. No. CRL-1420; AsPC-1 cells were purchased from ATCC, Cat. No. CRL-1682; NCI-H441 cells were purchased from ATCC, Cat. No. HTB-174; NCI-H1975 cells were purchased from ATCC, Cat. No. CRL-5908; DMEM medium was purchased from Gibco, Cat. No. 11995-065; RPMI-1640 medium was purchased from Gibco, Cat. No. 11875-093; FBS was purchased from Gibco, Cat. No. 10099-141C; penicillin/streptomycin double-antibiotic solution (PS) was purchased from Gibco, Cat. No. 15140-122; Horse serum was purchased from Gibco, Cat. No. 16050130; trypsin (containing EDTA) was purchased from Gibco, Cat. No. 25200-072; DMSO was purchased from VWRAMRESCO, Cat. No. 0231-500ML; 384-well cell culture plates were purchased from Corning, Cat. No. 3830; white-bottomed, opaque 384-well assay plates were purchased from Corning, Cat. No. 3570; CellTiter Glo-3D kit was purchased from Promega, Cat. No. G9683; cell counter was purchased from CHEMOMETEC, model: NC-200; microplate reader was purchased from PerkinElmer, model: EnVision.
MIA PaCa-2, a human pancreatic cancer cell strain endogenously containing a KRAS^G12Cmutation, was cultured in a complete medium containing DMEM + 10% FBS + 2.5% Horse serum + 1% PS. AsPC-1, a human pancreatic cancer cell strain endogenously containing a KRAS^G12D mutation, was cultured in a complete medium containing RPMI-1640 + 10% FBS + 1% PS. NCI-H441 cells, a human lung cancer cell strain endogenously containing a KRAS^G12V mutation, were cultured in a complete medium containing RPMI-1640 + 10% FBS + 1% PS. NCI-H1975, a KRAS wild-type human lung cancer cell strain whose cell proliferation […], was cultured in a complete medium containing RPMI-1640 + 10% FBS + 1% PS.
The cells were digested with trypsin (containing EDTA), collected in their respective low-serum complete media containing 2% FBS (for MIA Paca-2 cell culture: DMEM + 2% FBS + 0.5% Horse serum + 1% PS), and counted. After the cell density was adjusted as required, MIA PaCa-2 cells (200 cells/well), AsPC-1 cells (800 cells/well), NCI-H441 cells (800 cells/well), or NCI-H1975 cells (400 cells/well) were seeded into a 384-well cell culture plate, with the volume of the medium in each well being 45 µL. The cell culture plate was incubated in an incubator at 37 °C with 5% CO2 overnight. A series of 3.16-fold gradient dilutions of a 1000× compound stock solution were prepared with DMSO, and then diluted 100-fold with the complete medium containing 2% FBS described above to give 10× compound stock solutions. On the day after cell seeding, 5 µL of the 10× compound stock solution was added to each cell culture well. As a result, the final concentration of the compound in the cell culture well became 1×, and the DMSO content in the well was 0.1%. In addition to the compound-treated wells described above, cell-containing DMSO control wells (with 5 µL of the complete medium containing 1% DMSO added to each well) and cell-free medium control wells (containing 50 µL of the complete medium with 2% FBS) were also set. The culture plate was incubated in an incubator at 37 °C with 5% CO2 for another 5 days, and then 30 µL of CellTiter-Glo working solution was added to each well. The mixture was well mixed, incubated for 30 min, left to stand at room temperature for 30 min, and then transferred to a white-bottomed, opaque 384-well assay plate at 40 µL/well. The chemiluminescence values (RLU) were measured using a microplate reader, and the cell proliferation inhibition rate for each well was calculated: IR(%) = (RLUDMSO - RLUcompound)/(RLUDMSO - RLUblank) × 100%, where RLUDMSO is the average RLU signal value from the DMSO control well samples, RLUblank is the average RLU signal value from the medium control well samples, and RLUcompound is the RLU signal value from the compound-treated well samples. […]

p-ERK [2] = assay: Cell p-ERK assay (HTRF, Advance ERK phospho-T202/Y204 kit) in NCI-H441 cells; conditions: Homo sapiens, NCI-H441, 3 h, NCI-H441, human non-small cell lung cancer cell strain, KRAS G12V mutation; 3 h compound incubation
Procedure, shortened: as §1

NCI-H441 cells = assay: 3D cell proliferation assay (CellTiter Glo-3D) in NCI-H441 cells; conditions: Homo sapiens, NCI-H441, 120 h, NCI-H441, human lung cancer cell strain, KRAS G12V mutation; 3D culture, 2% FBS, 5 days; read-out: H441 AP IC50
Procedure, shortened: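 After a 5-day exposure at 37 °C to 3.16-fold serial dilutions (final DMSO 0.1%) in 2% FBS RPMI-1640, ATP luminescence (CellTiter-Glo 3D) was read. Cells were AsPC-1 (KRAS G12D) or NCI-H441 (KRAS G12V), 800 per well; inhibition used DMSO and medium-only controls, with four-parameter curve fitting giving IC50.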

Structure (SMILES) | IC50 (p-ERK [1]) [pM] | IC50 (AsPC-1 cells) [pM] | IC50 (p-ERK [2]) [pM] | IC50 (NCI-H441 cells) [pM]
CCn1nc2c(c1-c1cc(C#CCN3CCC(C#N)CC3)cnc1[C@H](C)OC)CC(C)(C)COC(=O)[C@@H]1CCCN(N1)C(=O)[C@@H](NC(=O)[C@H]1[C@H](C)[C@@H]1C)Cc1nc(cs1)/C=C/2 (atropisomer, axis not shown; (Ra)) [Compound Z73, (1r,2R,3S)-N-((4^2Z,8^3S,2E,6S)-(Ra)-1^5-(5-(3-(4-cyanopiperidin-1-yl)prop-1-yn-1-yl)-2-((S)-1-methoxyethyl)pyridin-3-yl)-1^1-ethyl-12,12-dimethyl-7,9-dioxo-8^1,8^2,8^3,8^4,8^5,8^6-hexahydro-1^1H-10-oxa-4(4,2)-thiazola-8(1,3)-pyridazina-1(3,4)-pyrrolacyclotridecaphan-2-en-6-yl)-2,3-dimethylcyclopropane-1-carboxamide] | 1730 | 1340 | 880 | 910
CCn1cc2c(c1-c1cc(C#CCN3CCCOCC3)cnc1[C@H](C)OC)CC(C)(C)COC(=O)[C@@H]1CCCN(N1)C(=O)[C@@H](NC(=O)[C@H]1[C@H](C)[C@@H]1C)Cc1nc(cs1)/C=C/2 (atropisomer, axis not shown; (Ra)) [Compound Z69, (1r,2R,3S)-N-((4^2Z,8^3S,2E,6S)-(Ra)-1^5-(5-(3-(1,4-oxazepan-4-yl)prop-1-yn-1-yl)-2-((S)-1-methoxyethyl)pyridin-3-yl)-1^1-ethyl-12,12-dimethyl-7,9-dioxo-8^1,8^2,8^3,8^4,8^5,8^6-hexahydro-1^1H-10-oxa-4(4,2)-thiazola-8(1,3)-pyridazina-1(3,4)-pyrrolacyclotridecaphan-2-en-6-yl)-2,3-dimethylcyclopropane-1-carboxamide] | 1540 | 670 | 900 | 580
CCn1cc2c(c1-c1cc(C#CCN3CCS(=O)(=O)CC3)cnc1[C@H](C)OC)CC(C)(C)COC(=O)[C@@H]1CCCN(N1)C(=O)[C@@H](NC(=O)[C@H]1[C@H](C)[C@@H]1C)Cc1nc(cs1)/C=C/2 (atropisomer, axis not shown; (Ra)) [Compound Z118, (1r,2R,3S)-N-((4^2Z,8^3S,2E,6S)-(Ra)-1^5-(5-(3-(1,1-dioxidothiomorpholino)prop-1-yn-1-yl)-2-((S)-1-methoxyethyl)pyridin-3-yl)-1^1-ethyl-12,12-dimethyl-7,9-dioxo-8^1,8^2,8^3,8^4,8^5,8^6-hexahydro-1^1H-10-oxa-4(4,2)-thiazola-8(1,3)-pyridazina-1(3,4)-pyrrolacyclotridecaphan-2-en-6-yl)-2,3-dimethylcyclopropane-1-carboxamide] | 200 | 240 | 470 | 280
CO[C@@H](C)c1ncc(C#CCN2CCS(=O)(=O)CC2)cc1-c1c2c(nn1C(C)C)/C=C/c1csc(n1)C[C@H](NC(=O)[C@H]1[C@H](C)[C@@H]1C)C(=O)N1CCC[C@H](N1)C(=O)OCC(C)(C)C2 (single isomer, unassigned) [Compound Z15] | 20300 | 10600 | 6740 | 4310

The remaining lines, values ahead:

IC50 (p-ERK [1]) [pM] | IC50 (AsPC-1 cells) [pM] | IC50 (p-ERK [2]) [pM] | IC50 (NCI-H441 cells) [pM] | Structure (SMILES)
110 | 190 | 290 | 140 | CCn1cc2c(c1-c1cc(C#CCN3CCC(C#N)CC3)cnc1[C@H](C)OC)CC(C)(C)COC(=O)[C@@H]1CCCN(N1)C(=O)[C@@H](NC(=O)[C@H]1[C@@H]3COC[C@@H]31)Cc1nc(cs1)/C=C/2 (atropisomer, axis not shown; (Ra)) [Compound Z50, (1R,5S,6r)-N-((4^2Z,8^3S,2E,6S)-(Ra)-1^5-(5-(3-(4-cyanopiperidin-1-yl)prop-1-yn-1-yl)-2-((S)-1-methoxyethyl)pyridin-3-yl)-1^1-ethyl-12,12-dimethyl-7,9-dioxo-8^1,8^2,8^3,8^4,8^5,8^6-hexahydro-1^1H-10-oxa-4(4,2)-thiazola-8(1,3)-pyridazina-1(3,4)-pyrrolacyclotridecaphan-2-en-6-yl)-3-oxabicyclo[3.1.0]hexane-6-carboxamide]
3600 | 1540 | 2030 | 1120 | CCn1cc2c(c1-c1cc(C#CCN3CCC3)cnc1[C@H](C)OC)CC(C)(C)COC(=O)[C@@H]1CCCN(N1)C(=O)[C@@H](NC(=O)[C@H]1[C@H](C)[C@@H]1C)Cc1nc(cs1)/C=C/2 (atropisomer, axis not shown; (Ra)) [Compound Z70, (1r,2R,3S)-N-((4^2Z, 8^3S,2E,6S)-(Ra)-1^5-(5-(3-(azetidin-1-yl)prop-1-yn-1-yl)-2-((S)-1-methoxyethyl)pyridin-3-yl)-1^1-ethyl-12,12-dimethyl-7,9-dioxo-8^1,8^2,8^3,8^4,8^5,8^6-hexahydro-1^1H-10-oxa-4(4,2)-thiazola-8(1,3)-pyridazina-1(3,4)-pyrrolacyclotridecaphan-2-en-6-yl)-2,3-dimethylcyclopropane-1-carboxamide]
130 | 110 | 230 | 150 | CCn1cc2c(c1-c1cc(C#CCN3CCC(C#N)(CN)CC3)cnc1[C@H](C)OC)CC(C)(C)COC(=O)[C@@H]1CCCN(N1)C(=O)[C@@H](NC(=O)[C@H]1[C@@H]3COC[C@@H]31)Cc1nc(co1)/C=C/2 (atropisomer, axis not shown; (Ra)) [Compound Z89, (1R,5S,6r)-N-((4^2Z,8^3S,2E, 6S)-(Ra)-1^5-(5-(3-(4-(aminomethyl)-4-cyanopiperidin-1-yl)prop-1-yn-1-yl)-2-((S)-1-methoxyethyl)pyridin-3-yl)-1^1-ethyl-12,12-dimethyl-7,9-dioxo-8^1,8^2,8^3,8^4,8^5,8^6-hexahydro-1^1 H-10-oxa-4(4,2)-oxazola-8(1,3)-pyridazina-1(3,4)-pyrrolacyclotridecaphan-2-en-6-yl)-3-oxabicyclo[3.1.0]hexane-6-carboxamide]
160 | 240 | 380 | 180 | CCn1cc2c(c1-c1cc(C#CCN3CCC(C#N)(CN)CC3)cnc1[C@H](C)OC)CC(C)(C)COC(=O)[C@@H]1CCCN(N1)C(=O)[C@@H](NC(=O)[C@H]1[C@@H]3COC[C@@H]31)Cc1nc(cs1)/C=C/2 (atropisomer, axis not shown; (Ra)) [Compound Z66]
